Molecular target: human DHODH (Homo sapiens, UniProt Q02127)
Experiment: Inhibition assay of DHODH activity
Type: biochemical
Conditions: recombinant human DHODH; 50 μM decyclo ubichinone, 100 μM dihydroorotate, 60 μM 2,6-dichloroindophenol; pH 8.0, 30° C.

Sequence of human DHODH (Q02127 whole entry): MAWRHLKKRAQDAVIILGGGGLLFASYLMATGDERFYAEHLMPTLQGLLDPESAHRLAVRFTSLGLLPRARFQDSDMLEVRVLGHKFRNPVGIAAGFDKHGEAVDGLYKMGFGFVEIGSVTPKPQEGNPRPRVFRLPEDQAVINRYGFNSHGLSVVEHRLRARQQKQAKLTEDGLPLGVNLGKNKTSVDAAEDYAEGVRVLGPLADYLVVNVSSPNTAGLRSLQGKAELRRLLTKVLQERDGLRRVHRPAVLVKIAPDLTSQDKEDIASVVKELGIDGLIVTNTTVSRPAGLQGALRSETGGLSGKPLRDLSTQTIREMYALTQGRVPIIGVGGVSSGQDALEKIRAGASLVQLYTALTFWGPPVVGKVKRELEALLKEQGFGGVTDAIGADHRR

Row | SMILES | IC50
1 | O=C(O)C1=C(C(=O)Nc2c(F)cc(-c3ccccc3F)cc2F)CCC1O (centres unmarked) [Example 12, 5-Hydroxy-2-(3,5,2′-trifluoro-biphenyl-4-ylcarbamoyl)-cyclopent-1-enecarboxylic acid] | < 1 µM
2 | COc1cccc(-c2ccc(NC(=O)C3=C(C(=O)O)C(O)CC3)c(F)c2)c1 (centres unmarked) [Example 18, 2-(3-Fluoro-3′-methoxy-biphenyl-4-ylcarbamoyl)-5-hydroxy-cyclopent-1-enecarboxylic acid] | < 1 µM
